According to patent publication US9365522B2, “Pyrazole amide derivative” (AMGEN INC., priority 2015, dated 2016):

The compounds below were run against T1, ligand binding domain of human ROR gamma (Homo sapiens, UniProt P51449) (assay: ROR gamma reporter gene assay (GAL4-RORγ LBD luciferase, Dual-Glo)). Conditions: HEK293T cells transfected with pM-ROR gamma, 8 concentrations 3.5 nM to 10.5 μM, 24 h incubation; read-out: result (pIC50, inhibition of RORγ transcriptional activity) (converted).
T1 construct: NM_001001523; expressed in transfected cells; host or cells: HEK293T
T1 sequence (P51449 247-497 isoform P51449-2): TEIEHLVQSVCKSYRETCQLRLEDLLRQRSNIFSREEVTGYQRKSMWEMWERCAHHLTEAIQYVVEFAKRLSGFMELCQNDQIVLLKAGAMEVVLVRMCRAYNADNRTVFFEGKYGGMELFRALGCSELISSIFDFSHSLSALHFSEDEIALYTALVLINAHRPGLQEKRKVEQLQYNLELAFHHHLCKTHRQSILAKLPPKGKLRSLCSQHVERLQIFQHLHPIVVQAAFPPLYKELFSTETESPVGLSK
Type: cell-based
How it was run: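 Transient GAL4-RORγ LBD (aa 247-497) / 5×UAS-luc / pRL-CMV cotransfection in HEK293T, charcoal-stripped 10% FBS. 8-pt dose, 3.5 nM–10.5 μM, 0.075% DMSO final. 24 h, 37 °C, 5% CO2. Dual-Glo firefly/renilla readout; pIC50 from curve fit.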

| IC50 [pM] | SMILES |
| --- | --- |
| 15500 | O=C(CN(Cc1ccc(F)cc1)C(=O)c1cnn(C23CCC(C(=O)O)(CC2)CC3)c1C(F)(F)F)c1c(Cl)cncc1Cl [Example 166, 4-(4-((2-(3,5-dichloropyridin-4-yl)-2-oxoethyl)-((4-fluorophenyl)methyl)carbamoyl)-5-(trifluoromethyl)pyrazol-1-yl)bicyclo[2.2.2]octane-1-carboxylic acid] |
| 40700 | Cc1cncc(Cl)c1C(=O)CN(Cc1cc(F)cc(F)c1)C(=O)c1cnn([C@H]2CC[C@H](C(=O)O)CC2)c1C(F)(F)F [Example 49, trans-4-(4-((2-(3-chloro-5-methylpyridin-4-yl)-2-oxoethyl)(3,5-difluorobenzyl)carbamoyl)-5-(trifluoromethyl)-1H-pyrazol-1-yl)cyclohexanecarboxylic acid] |
| 10000 | C[C@]1(C(=O)O)CC[C@H](n2ncc(C(=O)N(CC(=O)c3c(Cl)cncc3Cl)Cc3cc(F)cc(F)c3)c2C(F)(F)F)CC1 [Example 78, trans-4-(4-((2-(3,5-dichloropyridin-4-yl)-2-oxoethyl)(3,5-difluorobenzyl)carbamoyl)-5-(trifluoromethyl)-1H-pyrazol-1-yl)-1-methylcyclohexanecarboxylic acid] |
| 5370 | CC1(C)CC(CN(CC(=O)c2c(Cl)cc(F)cc2Cl)C(=O)c2cnn(C34CCC(C(=O)O)(CC3)CC4)c2C(F)(F)F)C1 [Example 266, 4-(4-((2-(2,6-dichloro-4-fluorophenyl)-2-oxoethyl)-((3,3-dimethylcyclobutyl)methyl)carbamoyl)-5-(trifluoromethyl)pyrazol-1-yl)bicyclo[2.2.2]octane-1-carboxyIic acid] |
| 11200 | CC(C)(C)CN(CC(=O)c1c(Cl)cccc1Cl)C(=O)c1cnn([C@H]2CC[C@](C)(C(=O)O)CC2)c1C(F)(F)F [Example 284, trans-4-(4-((2-(2,6-dichlorophenyl)-2-oxoethyl)-(2,2-dimethylpropyl)carbamoyl)-5-(trifluoromethyl)pyrazol-1-yl)-1-methylcyclohexane-1-carboxylic acid] |
| 4900 | CC1(C)[C@@H]2C[C@H](N(CC(=O)c3c(Cl)cc(Cl)cc3Cl)C(=O)c3cnn([C@H]4CC[C@](C)(C(=O)O)CC4)c3C(F)(F)F)C[C@@H]21 [Example 219, trans-4-(4-(((1R,3r,5S)-6,6-dimethyl-3-bicyclo[3.1.0]hexanyl)-(2-oxo-2-(2,4,6-trichlorophenyl)ethyl)carbamoyl)-5-(trifluoromethyl)pyrazol-1-yl)-1-methylcyclohexane-1-carboxylic acid] |
| < 3470 | CC12CCC(CN(CC(=O)c3c(Cl)cc(Cl)cc3Cl)C(=O)c3cnn([C@H]4CC[C@](C)(C(=O)O)CC4)c3C(F)(F)F)(CC1)C2 [Example 275, trans-4-(4-((1-methyl-4-bicyclo[2.2.1]heptanyl)methyl-(2-oxo-2-(2,4,6-trichlorophenyl)ethyl)carbamoyl)-5-(trifluoromethyl)pyrazol-1-yl)-1-methylcyclohexane-1-carboxylic acid] |
| 112000 | CC(C)=CCN(CC(=O)c1c(Cl)cncc1Cl)C(=O)c1cnn([C@H]2CC[C@H](C(=O)O)CC2)c1C(F)(F)F [Example 35, trans-4-(4-((2-(3,5-dichloropyridin-4-yl)-2-oxoethyl)(3-methylbut-2-en-1-yl)carbamoyl)-5-(trifluoromethyl)-1H-pyrazol-1-yl)cyclohexanecarboxyic acid] |
| 1.91e+06 | O=C(CN(Cc1ccccn1)C(=O)c1cnn([C@H]2CC[C@H](C(=O)O)CC2)c1C(F)(F)F)c1c(Cl)cncc1Cl [Example 103, trans-4-(4-((2-(3,5-dichloropyridin-4-yl)-2-oxoethyl)-(pyridin-2-ylmethyl)carbamoyl)-5-(trifluorornethyl)pyrazol-1-yl)cyclohexane-1-carboxylic acid] |
| 123000 | CC(C)[C@@H]1C[C@@H]1N(CC(=O)c1c(Cl)cncc1Cl)C(=O)c1cnn([C@H]2CC[C@](C)(C(=O)O)CC2)c1C(F)(F)F [Example 340, trans-4-(4-((2-(3,5-dichloropyridin-4-yl)-2-oxoethyl)-((1S,2S)-2-propan-2-ylcyclopropyl)carbamoyl)-5-(trifluoromethyl)pyrazol-1-yl)-1-methylcyclohexane-1-carboxylic acid] |
| 70800 | O=C(CN(Cc1cc(F)cc(F)c1)C(=O)c1cnn([C@H]2CC[C@H](C(=O)O)CC2)c1C(F)(F)F)c1c(F)cncc1Cl [Example 50, trans-4-(4-((2-(3-chloro-5-fluoropyridin-4-yl)-2-oxoethyl)(3,5-difluorobenzyl)carbamoyl)-5-(trifluoromethyl)-1H-pyrazol-1-yl)cyclohexanecarboxylic acid] |
| 7590 | C[C@]1(C(=O)O)CC[C@H](n2ncc(C(=O)N(CC(=O)c3c(Cl)cc(F)cc3Cl)Cc3cc(F)cc(F)c3)c2C(F)(F)F)CC1 [Example 2, trans-4-(4-((2-(2,6-dichloro-4-fluorophenyl)-2-oxoethyl)(3,5-difluorobenzyl)carbamoyl)-5-(trifluoromethyl)-1H-pyrazol-1-yl)-1-methylcyclohexanecarboxylic acid] |
| 26900 | CC(C)(C)CN(CC(=O)c1c(Cl)cncc1Cl)C(=O)c1cnn([C@H]2CC[C@](C)(C(=O)O)CC2)c1C(F)(F)F [Example 186, trans-4-(4-((2-(3,5-dichloropyridin-4-yl)-2-oxoethyl)-(2,2-dimethylpropyl)carbamoyl)-5-(trifluoromethyl)pyrazol-1-yl)-1-methylcyclohexane-1-carboxylic acid] |
| 331000 | O=C(CN(Cc1csc(Cl)n1)C(=O)c1cnn([C@H]2CC[C@H](C(=O)O)CC2)c1C(F)(F)F)c1c(Cl)cncc1Cl [Example 167, trans-4-(4-((2-chloro-1,3-thiazol-4-yl)methyl-(2-(3,5-dichloropyridin-4-yl)-2-oxoethyl)carbamoyl)-5-(trifluoromethyl)pyrazol-1-yl)cyclohexane-1-carboxylic acid] |
| 83200 | CC1(C)[C@@H]2C[C@H](N(CCc3c[nH]c4cncc(Cl)c34)C(=O)c3cnn([C@H]4CC[C@](C)(C(=O)O)CC4)c3C(F)(F)F)C[C@@H]21 [Example 380, trans-4-(4-((2-(4-chloro-1H -pyrrolo(2,3-c)pyridin-3-yl)ethyl)((1R,3r,5S)-6,6-dimethylbicyclo[3.1.0]hexan-3-yl)carbamoyl)-5-(trifluoromethyl)-1H-pyrazol-1-yl)-1-methylcyclohexanecarboxylic acid] |
| 21400 | COc1cccc(Cl)c1C(=O)CN(C(=O)c1cnn(C23CCC(C(=O)O)(CC2)CC3)c1C(F)(F)F)[C@H]1C[C@@H]2[C@H](C1)C2(C)C [Example 248, 4-(4-((2-(2-chloro-6-methoxyphenyl)-2-oxoethyl)-((1R,3r,5S)-6,6-dimethyl-3-bicyclo[3.1.0]hexanyl)carbamoyl)-5-(trifluoromethyl)pyrazol-1-yl)bicyclo[2.2.2]octane-1-carboxylic acid] |
| 141000 | O=C(CN(Cc1ccc(F)cc1)C(=O)c1cnn(C23CCC(C(=O)O)(CC2)C3)c1C(F)(F)F)c1c(Cl)cncc1Cl [Example 177, 4-(4-((2-(3,5-dichloropyridin-4-yl)-2-oxoethyl)-((4-fluorophenyl)methyl)carbamoyl)-5-(trifluoromethyl)pyrazol-1-yl)bicyclo[2.2.1]heptane-1-carboxylic acid] |
| 28800 | Cc1[nH]c2cccc(Cl)c2c1CCN(C(=O)c1cnn([C@H]2CC[C@](C)(C(=O)O)CC2)c1C(F)(F)F)[C@H]1C[C@@H]2[C@H](C1)C2(C)C [Example 392, trans-4-(4-((2-(4-chloro-2-methyl-1H-indol-3-yl)ethyl)((1R,3r,5S)-6,6-dimethylbicyclo[3.1.0]hexan-3-yl)carbamoyl)-5-(trifluoromethyl)-1H-pyrazol-1-yl)-1-methylcyclohexanecarboxylic acid] |
| ≥ 1.05e+07 | CC1(C)[C@@H]2C[C@H](N(CCn3cnc4cccc(Cl)c43)C(=O)c3cnn([C@H]4CC[C@](C)(C(=O)O)CC4)c3C(F)(F)F)C[C@@H]21 [Example 405, trans-4-(4-((2-(7-chloro-1H-benzo(d)imidazol-1-yl)ethyl)((1R,3r,5S)-6,6-dimethylbicyclo[3.1.0]hexan-3-yl)carbamoyl)-5-(trifluoromethyl)-1H-pyrazol-1-yl)-1-methylcyclohexanecarboxylic acid] |
| 55000 | COc1cncc(Cl)c1C(=O)CN(CC(C)(C)C)C(=O)c1cnn([C@H]2CC[C@](C)(C(=O)O)CC2)c1C(F)(F)F [Example 315, trans-4-(4-((2-(3-chloro-5-methoxypyridin-4-yl)-2-oxoethyl)-(2,2-dimethylpropyl)carbamoyl)-5-(trifluoromethyl)pyrazol-1-yl)-1-methylcyclohexane-1-carboxylic acid] |
| 257000 | Cc1c(C(=O)N(CC(=O)c2c(Cl)cncc2Cl)CC2CC(C)(C)C2)cnn1[C@H]1CC[C@](C)(C(=O)O)CC1 [Example 382, trans-4-(4-((2-(3,5-dichloropyridin-4-yl)-2-oxoethyl)-((3,3-dimethylcyclobutyl)methyl)carbamoyl)-5-methylpyrazol-1-yl)-1-methylcyclohexane-1-carboxylic acid] |
